Earlier results on one compound are cited in PMC7605553 (bioRxiv, 2020).

The test system of this data set is SARS-CoV-2. As to conditions: read-out: EC50 for inhibition of SARS-CoV-2 infection; Calu-3 cells.

The structures appear in SMILES notation. Where a name gives a salt, the structure may show the parent alone.

Regarding `CN(C)C(=O)COC(=O)Cc1ccc(OC(=O)c2ccc(NC(=N)N)cc2)cc1` [camostat mesylate], the EC50 was 1000 nM.
